Assay results from paper PMC8725909, “1,3,4-Oxadiazole-naphthalene hybrids as potential VEGFR-2 inhibitors: design, synthesis, antiproliferative activity, apoptotic effect, and in silico studies” (Journal of Enzyme Inhibition and Medicinal Chemistry, 2021).
“And” between values parts separate entries of the source, which are not always exact repeats. Equal entries are not always repeated. Where two headings read alike, the source gives them in different places.

Legend:
[1] = system: normal adult liver epithelial cells (THLE-2 cells); assay: MTT cytotoxicity against normal cells; format: cell-based; conditions: Homo sapiens
Method: (§1) The MCF-7, HepG2, and THLE-2 cell lines were purchased from the American Type Culture Collection (ATCC, Rockville, MD, USA). MCF-7 and HepG2 cells were grown in a medium that contains Roswell Park Memorial Institute (RPMI) 1640 with L-glutamine, 10% foetal bovine serum (FBS), streptomycin (100 μg/ml) and penicillin (100 U/ml). While THLE-2 cells were cultivated in Bronchial Epithelial Growth Media (BEGM) with 10% FBS, 5 ng/ml EGF, and 70 ng/ml phosphoethanolamine. All cells were maintained in a humidified incubator and 5% (v/v) CO2 atmosphere at 37 °C[60].
(§2) The MCF-7, HepG2, and THLE-2 cells were tested for cytotoxicity using the 3–(4, 5-dimethylthiazol-2-yl)-2,5-diphenyltetrazolium bromide (MTT) assay. The ability of living cells to reduce the yellow product MTT to a blue product, formazan, via a reduction reaction that occurs in the mitochondria is used to assess cell population growth. In this assay, 5000 cells/well were plated in a 96-well plate and allowed to grow for 24 h before being treated with over-mentioned suitable media containing increased concentrations of tested compounds (0, 0.1, 1, 10, 100, and 1000 µM). Each experiment was conducted in triplicate. After removing the media, 100 µL of MTT was added to each well and incubated for 4 h. Following that, 100 µL of dimethyl sulfoxide (DMSO) solution was added to solubilise the resulting formazan product, and absorbance at 570 nm was measured using an ELISA microplate reader (Epoc-2 C micro-plate reader, Bio Tek, VT, USA). The IC50 values [the concentration required to inhibit cell viability by 50%] were calculated.

caspase-3 = assay: Caspase-3 determination by ELISA; format: cell-based, human; conditions: HepG2, 8.8 µM, 24 h
Method: To test the effect of the synthesised compounds on caspase-3 levels, the most promising member 5, at a concentration of 8.8 µM, was applied to the most sensitive cells (HepG2) for 24 h.
The effect of compound 5 on the Caspase-3 level was assessed using an ELISA kit (Catalog # KHO1091) according to manufacturer instructions.

VEGFR-2 = VEGFR-2 level in HepG2 cells by ELISA; format: cell-based, human; conditions: VEGFR-2 concentration in HepG2 cells after treatment; control 1773 ± 15.01; mean ± SEM of three experiments
Method: In vitro VEGFR-2 concentration was evaluated using Enzyme-Linked Immunosorbent Assay (ELISA) kit (Cat. NO. EK0544) (AVIVA System Biology, USA) according to manufacturer instructions.

HepG2 cells [2] = assay: Annexin-V/propidium iodide apoptosis assay; format: cell-based, human; conditions: HepG2, 8.8 µM, 48 h, mean ± SEM of three experiments
Method: The apoptosis induced by compound 5 was quantified using an Annexin-V/propidium iodide (PI) staining assay. Compound 5 was applied to HepG2 cells at a concentration of 8.8 µM.
To assess the effect of compound 5 on cell apoptosis, Annexin V–FITC Kit was used according to the kit protocol (PN IM3546), followed by flow cytometric analysis. In brief, HepG2 cells were allowed to grow in […], after that treated for 48 h. then, washed in phosphate-buffered saline and suspended to 5 × 10^5–5 × 10^6 cells/mL in 1X binding buffer. Then we added to 100 µL of the cell suspensions, 5 µL of dissolved PI, and 1 µL of annexin VFITC solution and incubated in the dark for 15 min. Next to that, we added 400 µL of ice-cold 1X binding buffer and mixed gently. Apoptotic cells were determined by flow cytometric analysis on a COULTER® EPICS® XL™ Flow Cytometer (USA)[67]^,[71]^,[72].

[3] = system: MCF-7 (human breast cancer cell line); assay: MTT cytotoxicity assay, MCF-7; format: cell-based
Method: (§3) MTT assay was used to assess the cytotoxic activities of the synthesised compounds against MCF-7 (human breast cancer cell line) and HepG2 (human hepatocellular carcinoma cell line).
as §1, §2

[4] = system: HepG2 (human hepatocellular carcinoma cell line); assay: MTT cytotoxicity assay, HepG2; format: cell-based
Method: as §3, §1, §2

HepG2 cells [5] = assay: Cell cycle analysis by flow cytometry (propidium iodide); format: cell-based, human; conditions: HepG2, 8.8 µM, 48 h
Method: As a control, HepG2 cells were not treated with compound 5.
The effect of compound 5 on the cell cycle phases was investigated using propidium iodide staining and flow cytometric analysis according to the cell cycle kit (PN C03551). Briefly, HepG2 cells were allowed to grow in […], then treated with compound 5 for 48 h. After that, the cells were harvested and cell fixation was performed, cells were centrifuged at 2000 rpm for 5 min then, the supernatant was aspirated. The pellet of fixed cells was resuspended in a 0.5 ml cell cycle kit, vortexed, and incubated at 25 °C for 15 min. Finally, DNA was stained with 50 µg/ml propidium iodide for 30 min. Flow cytometric analysis of cell cycle performed on a COULTER® EPICS® XL™ Flow Cytometer (USA)[67–70].

[6] = parameters: method as in PMID 25895472; conditions: cited from earlier work
[7] = parameters: method as in PMID 33707933; conditions: 200 mg once daily, patients with advanced solid tumours; cited from earlier work
[8] = THLE-2, normal liver epithelial cells, MTT, mean ± SEM of at least three experiments, read-out: THLE-2 IC50
[9] = MCF7, MTT assay, mean ± SEM of at least three experiments, read-out: IC50 MCF-7
[10] = HepG2, MTT assay, mean ± SEM of at least three experiments, read-out: IC50 HepG2

| Structure (SMILES) | VEGFR-2 (pg/ml) HepG2 (VEGFR-2) | IC50 [3, 9] [µM] | IC50 [4, 10] [µM] | IC50 ([3]; MCF7, read-out: IC50 MCF-7) [µM] | IC50 ([4]; HepG2, read-out: IC50 HepG2) [µM] | other results |
| --- | --- | --- | --- | --- | --- | --- |
| COc1ccc2cc(C(C)c3nnc(SCC(=O)NCc4ccccc4)o3)ccc2c1 (stereo not drawn) [Compound 5, N-Benzyl-2-{[5-(1-(6-methoxynaphthalen-2-yl)ethyl)-1,3,4-oxadiazol-2-yl]thio}acetamide] | 610.4 pg/mL and 610.4 ± 3.46 pg/mL | 9.7 ± 0.75 | 8.8 ± 0.69 | – | – | IC50 [1, 8]: 33.7 ± 1.35 µM; increase in the level of caspase-3 compared to control cells (caspase-3): 5.61 fold; Apoptosis (%) (HepG2 cells [2]; control 0.51 ± 0.03): 22.86% and 22.86 ± 1.28 %; Necrosis (%) (HepG2 cells [2]; control 1.25 ± 0.08): 11.26 ± 0.77 %; percentage of cells in Pre-G1 phase (HepG2 cells [5]; control 1.76%): 34.12%; percentage of cells in S phase (HepG2 cells [5]; control 27.59%): 42.05%; percentage of cells in G0/G1 phase (HepG2 cells [5]; control 51.31%): 43.91% |
| COc1ccc2cc(C(C)c3nnc(SCC(=O)Nc4ccccc4)o3)ccc2c1 (stereo not drawn) [Compound 6, 2-{[5-(1-(6-Methoxynaphthalen-2-yl)ethyl)-1,3,4-oxadiazol-2-yl]thio}-N-phenylacetamide] | – | 13.2 ± 1.12 | 12.3 ± 0.87 | – | – | – |
| COc1ccc2cc(C(C)c3nnc(SCC(=O)Nc4ccccc4C)o3)ccc2c1 (stereo not drawn) [Compound 7, 2-{[5-(1-(6-Methoxynaphthalen-2-yl)ethyl)-1,3,4-oxadiazol-2-yl]thio}-N-(o-tolyl)acetamide] | – | 13.6 ± 1.09 | 12.5 ± 1.09 | – | – | – |
| COc1ccc2cc([C@H](C)c3nnc(SCC(=O)Nc4cccc(C)c4)o3)ccc2c1 [Compound 8, 2-{[5-(1-(6-Methoxynaphthalen-2-yl)ethyl)-1,3,4-oxadiazol-2-yl]thio}-N-(m-tolyl) acetamide] | 583.7 pg/mL and 583.7 ± 1.93 pg/mL | 10.4 ± 0.92 | 9.5 ± 0.87 | – | – | IC50 [1, 8]: 16.7 ± 0.73 µM |
| COc1ccc2cc(C(C)c3nnc(SCC(=O)Nc4ccc(C)cc4)o3)ccc2c1 (stereo not drawn) [Compound 9, 2-{[5-(1-(6-Methoxynaphthalen-2-yl)ethyl)-1,3,4-oxadiazol-2-yl]thio}-N-(p-tolyl)acetamide] | – | – | – | 83.5 ± 7.79 | 83.7 ± 6.52 | – |
| COc1ccc2cc(C(C)c3nnc(SCC(=O)Nc4c(C)cccc4C)o3)ccc2c1 (stereo not drawn) [Compound 10, N-(2,6-Dimethylphenyl)-2-{[5-(1-(6-methoxynaphthalen-2-yl)ethyl)-1,3,4-oxadiazol-2-yl]thio}acetamide] | – | 12.5 ± 0.74 | 11.8 ± 1.04 | – | – | – |
| COc1cccc(NC(=O)CSc2nnc(C(C)c3ccc4cc(OC)ccc4c3)o2)c1 (stereo not drawn) [Compound 11, 2-{[5-(1-(6-Methoxynaphthalen-2-yl)ethyl)-1,3,4-oxadiazol-2-yl]thio}-N-(3-methoxyphenyl)acetamide] | – | 11.4 ± 0.81 | 10.7 ± 0.58 | – | – | – |
| COc1ccc2cc(C(C)c3nnc(SCC(=O)NC4CCCCC4)o3)ccc2c1 (stereo not drawn) [Compound 12, N-Cyclohexyl-2-{[5-(1-(6-methoxynaphthalen-2-yl)ethyl)-1,3,4-oxadiazol-2-yl]thio}acetamide] | – | – | – | 25.5 ± 2.02 | 24.6 ± 2.81 | – |
| COc1ccc2cc(C(C)c3nnc(SCC(=O)Nc4ccc(Cl)cc4)o3)ccc2c1 (stereo not drawn) [Compound 13, N-(4-Chlorophenyl)-2-{[5-(1-(6-methoxynaphthalen-2-yl)ethyl)-1,3,4-oxadiazol-2-yl]thio}acetamide] | – | – | – | 11.4 ± 0.99 | 10.5 ± 0.93 | – |
| COc1ccc2cc(C(C)c3nnc(SCC(=O)Nc4ccc(Cl)cc4Cl)o3)ccc2c1 (stereo not drawn) [Compound 14, N-(2,4-Dichlorophenyl)-2-{[5-(1-(6-methoxynaphthalen-2-yl)ethyl)-1,3,4-oxadiazol-2-yl]thio}acetamide] | – | – | – | 11.2 ± 0.69 | 10.4 ± 0.81 | – |
| COc1ccc2cc(C(C)c3nnc(SCC(=O)Nc4c(Cl)cccc4Cl)o3)ccc2c1 (stereo not drawn) [Compound 15, N-(2,6-Dichlorophenyl)-2-{[5-(1-(6-methoxynaphthalen-2-yl)ethyl)-1,3,4-oxadiazol-2-yl]thio}acetamide] | 864.5 pg/mL and 864.5 ± 5.92 pg/mL | 9.8 ± 0.46 | 8.4 ± 0.72 | – | – | IC50 [1, 8]: 34.9 ± 1.86 µM |
| COc1ccc2cc([C@H](C)c3nnc(SCC(=O)Nc4ccccc4[N+](=O)[O-])o3)ccc2c1 [Compound 16, 2-{[5-(1-(6-Methoxynaphthalen-2-yl)ethyl)-1,3,4-oxadiazol-2-yl]thio}-N-(2-nitrophenyl) acetamide] | 834.9 pg/mL and 834.9 ± 5.17 pg/mL | – | – | 9.8 ± 0.8 | 8.7 ± 0.72 | IC50 ([1]; THLE-2, read-out: THLE-2 IC50): 29.7 ± 2.23 µM |
| COc1ccc2cc([C@H](C)c3nnc(SCC(=O)Nc4ccc([N+](=O)[O-])cc4)o3)ccc2c1 [Compound 17, 2-{[5-(1-(6-Methoxynaphthalen-2-yl)ethyl)-1,3,4-oxadiazol-2-yl]thio}-N-(4-nitrophenyl) acetamide] | 1067 pg/mL and 1067 ± 4.91 pg/mL | – | – | 10.4 ± 0.82 | 9.2 ± 0.76 | IC50 ([1]; THLE-2, read-out: THLE-2 IC50): 22.8 ± 1.22 µM |
| COc1ccc2cc(C(C)c3nnc(SCC(=O)Nc4ccc([N+](=O)[O-])cc4O)o3)ccc2c1 (stereo not drawn) [Compound 18, N-(2-Hydroxy-4-nitrophenyl)-2-{[5-(1-(6-methoxynaphthalen-2-yl)ethyl)-1,3,4-oxadiazol-2-yl]thio}acetamide] | 1004 pg/mL and 1004 ± 5.49 pg/mL | 9.4 ± 0.64 | 8.7 ± 0.75 | – | – | IC50 [1, 8]: 28.6 ± 2.1 µM |
| CNC(=O)c1cc(Oc2ccc(NC(=O)Nc3ccc(Cl)c(C(F)(F)F)c3)cc2)ccn1 [Sorafenib, reference compound] | – | 10.8 ± 1.01 | 10.2 ± 0.97 | – | – | IC50 [1, 8]: 27.8 ± 1.74 µM |
| COc1cc2nccc(Oc3ccc(NC(=O)Nc4cc(C)on4)c(Cl)c3)c2cc1OC [Tivozanib] | – | – | – | – | – | half-life [6]: 96 h |
| Cc1[nH]c(/C=C2\C(=O)Nc3ccc(F)cc32)c(C)c1C(=O)N[C@H]1CCN(C(=O)N(C)C)C1 [Vorolanib] | – | – | – | – | – | safety profile [7]: acceptable safety profile |
